Laboratory results as given in BindingDB's records for doi:10.1021/jm00032a003 (Merck Research Laboratories, 1994).

Test: The compound was tested for binding activity against Cholecystokinin type B receptor from rat […] tissue using [125]BH CCK-8 as radioligand

Structure (SMILES)	IC50
CC(C)CN1C(=O)[C@@H](NC(=O)Nc2ccc(-c3nnn[nH]3)cc2)N=C(c2ccccc2)c2ccccc21 [1-((S)-1-Isobutyl-2-oxo-5-phenyl-2,3-dihydro-1H-benzo[e][1,4]diazepin-3-yl)-3-[4-(1H-tetrazol-5-yl)-phenyl]-urea]	0.142 nM
CN1C(=O)[C@@H](NC(=O)Nc2ccc(-c3nc(=O)o[nH]3)cc2)N=C(c2ccccc2)c2ccccc21 [1-((S)-1-Methyl-2-oxo-5-phenyl-2,3-dihydro-1H-benzo[e][1,4]diazepin-3-yl)-3-[4-(5-oxo-4,5-dihydro-[1,2,4]oxadiazol-3-yl)-phenyl]-urea]	0.266 nM
CC(C)CN1C(=O)[C@H](NC(=O)Nc2ccc(-c3nnn[nH]3)cc2)N=C(c2ccccc2)c2ccccc21 [1-((R)-1-Isobutyl-2-oxo-5-phenyl-2,3-dihydro-1H-benzo[e][1,4]diazepin-3-yl)-3-[4-(1H-tetrazol-5-yl)-phenyl]-urea]	23.8 nM
CN1C(=O)[C@@H](NC(=O)Nc2ccc(-c3nnn[nH]3)cc2)N=C(c2ccccc2)c2ccccc21 [1-((S)-1-Methyl-2-oxo-5-phenyl-2,3-dihydro-1H-benzo[e][1,4]diazepin-3-yl)-3-[4-(1H-tetrazol-5-yl)-phenyl]-urea]	1.02 nM
CN1C(=O)[C@H](NC(=O)Nc2ccc(-c3nc(=O)o[nH]3)cc2)N=C(c2ccccc2)c2ccccc21 [1-((R)-1-Methyl-2-oxo-5-phenyl-2,3-dihydro-1H-benzo[e][1,4]diazepin-3-yl)-3-[4-(5-oxo-4,5-dihydro-[1,2,4]oxadiazol-3-yl)-phenyl]-urea]	56.4 nM
CN1C(=O)[C@H](NC(=O)Nc2ccc(-c3nnn[nH]3)cc2)N=C(c2ccccc2)c2ccccc21 [1-((R)-1-Methyl-2-oxo-5-phenyl-2,3-dihydro-1H-benzo[e][1,4]diazepin-3-yl)-3-[4-(1H-tetrazol-5-yl)-phenyl]-urea]	250 nM
CN1C(=O)[C@H](NC(=O)Nc2ccc(C(=O)O)cc2)N=C(c2ccccc2)c2ccccc21	6.7 nM
